Series [1] has as its target T1, RBP4 (Homo sapiens (Human), UniProt P02753). The experiment in a line: Scintillation proximity (SPA) RBP4 binding assay. The conditions noted are these: 10 nM 3H-Retinol, 50 nM biotinylated RBP4. Summed up: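 Biotinylated urinary human RBP4 (50 nM) on streptavidin-PVT SPA beads with 10 nM ³H-retinol and test compound, in PBS pH 7.4, 1 mM EDTA, 0.1% BSA, 0.5% CHAPS. Nonspecific binding with 20 μM unlabeled retinol. Equilibrated 6 h at room temperature then overnight at 4° C under dim light.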

Series [2] concerns the target T2, RBP4-TTR interaction (Homo sapiens (Human), UniProt P02753). Kind of series: TR-FRET (HTRF) assay for retinol-induced RBP4-TTR interaction. The format is biochemical. The conditions noted are these: in the presence of 1 μM retinol; read-out: HTRF assay for antagonists of RBP4-TTR interaction: IC50. Summed up: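 Bacterial MBP-RBP4 and Eu³⁺-cryptate-labeled untagged human TTR were incubated with titrated compound in the presence of 1 μM retinol, overnight at +4° C in the dark. Buffer: 10 mM Tris-HCl pH 7.5, 1 mM DTT, 0.05% NP-40, 0.05% Prionex, 6% glycerol, 400 mM KF. Signal is reported as Flu665/Flu620×10,000.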

Series [3] deals with serum RBP4 (Mus musculus (Mouse), UniProt Q00724). Kind of series: Serum RBP4 levels in Abca4−/− mice. The format is in vivo. The conditions noted are these: 25 mg/kg for 12 weeks, mice starting at 17 weeks old. How it is done:
(§1) The effectiveness of the compounds listed in Table 1 are tested in wild-type and Abca4−/− mice. The Abca4−/− mouse model manifests accelerated accumulation of lipofuscin in the RPE and is considered a pre-clinical efficacy model for a drug reducing lipofuscin accumulation. Compounds are orally dosed for 3 weeks at 30 mg/kg. There is a reduction in the serum RBP4 level in treated animals. The levels of A2E/isoA2E and other bisretinoids are reduced in treated mice.
(§2) Abca4−/− mice have A2E levels in the ˜15-19 pmoles/eye range at 17 weeks old. Mice, starting at 17 weeks old, were treated with 25 mg/kg of Compound 81 for 12 weeks.

The test system of series [4] is Abca4−/− mice. Kind of series: Bisretinoid accumulation in eyes of Abca4−/− mice. The format is in vivo, mouse. The conditions noted are these: 25 mg/kg for 12 weeks, mice starting at 17 weeks old, versus vehicle-treated controls. How it is done:
as §1, §2

Series [5] has as its target T1, RBP4. The conditions noted are these: cited from earlier work.
Series [6] addresses T2, RBP4-TTR interaction. The conditions noted are these: cited from earlier work.
Series [7] has as its target serum RBP4 and retinol (Rattus norvegicus (Rat), UniProt P04916). The conditions noted are these: in vivo; cited from earlier work.
Series [8] concerns Abca4−/− mice. The conditions noted are these: cited from earlier work.
The subject of series [9] is retinal pigment epithelium cells. The conditions noted are these: many cell types, including the retinal pigment epithelium cells; cited from earlier work.
For series [10], the system named is mice. The conditions noted are these: cited from earlier work.

Structures can show the parent of a compound that is named as a salt.

As to `O=C(c1n[nH]c2c1CNC2)N1CCC(c2ccc(F)c(F)c2C(F)(F)F)CC1` [Compound 38, (4-(3,4-Difluoro-2-(trifluoromethyl)phenyl)piperidin-1-yl)(1,4,5,6-tetrahydropyrrolo[3,4-c]pyrazol-3-yl)methanone Hydrochloride], the IC50 in series [1] was 26.9 nM; in series [2] it was 200 nM. For the same compound, in series [3] (present-tense paper example), the “serum RBP4 level” value is “significant serum RBP4 reduction”.
In the same order, the values of `O=C(c1n[nH]c2c1CCNC2)N1CCC(c2cccc(F)c2C(F)(F)F)CC1` [Compound 30, (4-(3-Fluoro-2-(trifluoromethyl)phenyl)piperidin-1-yl)(4,5,6,7-tetrahydro-1H-pyrazolo[3,4-c]pyridin-3-yl)methanone Hydrochloride] are 13.3 nM, 44.1 nM and “significant serum RBP4 reduction”.
Consider `CC(=O)N1CCc2c(C(=O)N3CCC(c4ccc(F)c(F)c4C(F)(F)F)CC3)n[nH]c2C1` [Compound 81, 1-(3-(4-(3,4-Difluoro-2-(trifluoromethyl)phenyl)piperidine-1-carbonyl)-4,5-dihydro-1H-pyrazolo[3,4-c]pyridin-6(7H)-yl)ethanone], for which, in [4], the “reduction in bisretinoid content” value is given as 53%. In addition, in series [3], the “serum RBP4 level” value is given as “significant serum RBP4 reduction”.
As to `O=C(c1n[nH]c2c1CCNC2)N1CCC(c2cccc(F)c2Cl)CC1` [Compound 40, (4-(2-Chloro-3-fluorophenyl)piperidin-1-yl)(4,5,6,7-tetrahydro-1Hpyrazolo[3,4-c]pyridin-3-yl)methanone Hydrochloride], the IC50 in series [1] was determined as 14 nM; in series [2], 84.9 nM. Moreover, in [3] (present-tense paper example), the “serum RBP4 level” value is “significant serum RBP4 reduction”.
As for `O=C(c1n[nH]c2c1CNCC2)N1CCC(c2ccc(F)c(F)c2C(F)(F)F)CC1` [Compound 36, (4-(3,4-Difluoro-2-(trifluoromethyl)phenyl)piperidin-1-yl)(4,5,6,7-tetrahydro-1H-pyrazolo[4,3-c]pyridin-3-yl)methanone Trifluoroacetic Acid Salt], the results for the half-maximal inhibitory concentration (IC50) in series [1] and in [2] were 10.9 nM and 291 nM, respectively. Also, in series [3] (present-tense paper example), the “serum RBP4 level” value was “significant serum RBP4 reduction”.
On to `CC1=C(/C=C/C(C)=C/C=C/C(C)=C/C(=O)Nc2ccc(O)cc2)C(C)(C)CCC1` [fenretinide, N-(4-hydroxy-phenyl)retinamide], for which the “binding to RBP4 and displacement of all-trans retinol” value in [5] is listed as “bind to RBP4, displace all-trans retinol from RBP4”. In addition, the RBP4-TTR interaction entry in [6] was “disrupt the RBP4-TTR interaction”. Besides, the “serum RBP4 and retinol” value in series [7] is “reduce serum RBP4 and retinol”. Also, the A2E production result in series [8] (Abca4−/− mice) was “reduced A2E production”. Further, the “ocular all-trans retinol uptake and visual cycle” value in series [8] (mouse, in vivo) is “inhibit ocular all-trans retinol uptake and slow down the visual cycle”. For the same compound, the induction of apoptosis result in series [9] was “extremely active inducer of apoptosis”. Further, the formation of hemangiosarcomas entry in series [10] is “stimulate formation of hemangiosarcomas”.
For the compound `O=C(c1n[nH]c2c1CCNC2)N1CCC(c2ccc(F)c(F)c2C(F)(F)F)CC1` [Compound 34], the IC50 worked out at 20.7 nM in series [1] and 53.1 nM in [2]. For the same compound, the “serum RBP4 level” value in series [3] (present-tense paper example) is listed as “significant serum RBP4 reduction”.
For the compound `O=C(c1n[nH]c2c1CNCC2)N1CCC(c2cccc(F)c2Cl)CC1` [Compound 42, (4-(2-Chloro-3-fluorophenyl)piperidin-1-yl)(4,5,6,7-tetrahydro-1Hpyrazolo[4,3-c]pyridin-3-yl) methanone Hydrochloride], the IC50 in series [1] came out at 424 nM; in series [2] it was 791 nM. Further, the “serum RBP4 level” value in series [3] (present-tense paper example) was “significant serum RBP4 reduction”.

(Values after patent publication US9434727B2, “Substituted 4-phenylpiperidines, their preparation and use” (THE TRUSTEES OF COLUMBIA UNIVERSITY IN THE CITY OF NEW YORK, priority 2014, dated 2016).)
